In test [1] the test system is HCC827 (EGFR DelE746_A750). Kind of test: Inhibition test for growth of cancer cell expressing EGFR (SRB), HCC827.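 Note: cells in 96-well plates exposed to tenfold serial dilutions from 100 µM, fixed with trichloroacetic acid, SRB-stained, absorbance read at 540 nm, DMSO under 1%.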 It is filed as cell-based. As to conditions: Homo sapiens, HCC827, 72 h, HCC827 cells, 72 hours, SRB; read-out: GI50 HCC827 EGFR DelE746_A750.
The next test has as its target T1, JAK3 (Homo sapiens, UniProt P52333).
T1 construct: purchased Invitrogen
T1 sequence (P52333 1-1124): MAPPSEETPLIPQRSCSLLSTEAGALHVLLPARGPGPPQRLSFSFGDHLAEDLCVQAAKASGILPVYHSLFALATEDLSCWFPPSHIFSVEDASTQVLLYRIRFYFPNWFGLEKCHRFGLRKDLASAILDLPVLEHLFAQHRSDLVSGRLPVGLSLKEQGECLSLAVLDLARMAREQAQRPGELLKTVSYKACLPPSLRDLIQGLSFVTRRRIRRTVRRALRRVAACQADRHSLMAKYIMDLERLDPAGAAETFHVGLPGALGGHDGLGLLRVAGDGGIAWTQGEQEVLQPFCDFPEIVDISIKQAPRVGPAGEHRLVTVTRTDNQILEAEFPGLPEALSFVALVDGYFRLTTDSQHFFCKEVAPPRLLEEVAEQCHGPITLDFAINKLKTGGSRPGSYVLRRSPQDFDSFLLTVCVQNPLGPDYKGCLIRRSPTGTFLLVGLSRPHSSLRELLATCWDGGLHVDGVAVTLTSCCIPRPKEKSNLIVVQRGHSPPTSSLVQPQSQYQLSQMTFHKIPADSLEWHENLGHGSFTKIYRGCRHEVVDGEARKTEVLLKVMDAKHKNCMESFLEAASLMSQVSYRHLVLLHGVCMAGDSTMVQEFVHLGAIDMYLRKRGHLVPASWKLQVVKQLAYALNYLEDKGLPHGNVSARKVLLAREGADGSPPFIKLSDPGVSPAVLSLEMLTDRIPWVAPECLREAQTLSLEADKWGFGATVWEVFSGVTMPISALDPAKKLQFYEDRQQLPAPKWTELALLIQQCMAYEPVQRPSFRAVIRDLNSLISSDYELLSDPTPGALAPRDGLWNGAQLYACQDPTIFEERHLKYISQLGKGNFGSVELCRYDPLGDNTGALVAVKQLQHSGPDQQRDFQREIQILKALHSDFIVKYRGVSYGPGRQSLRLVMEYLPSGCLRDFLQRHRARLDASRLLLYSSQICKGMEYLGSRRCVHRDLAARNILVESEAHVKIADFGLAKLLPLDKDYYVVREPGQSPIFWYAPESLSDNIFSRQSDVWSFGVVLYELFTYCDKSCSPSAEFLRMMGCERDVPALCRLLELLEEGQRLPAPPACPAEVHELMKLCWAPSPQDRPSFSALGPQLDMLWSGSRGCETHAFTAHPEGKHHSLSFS
The test can be described thus: z-lyte kinase assay, JAK3. It is filed as biochemical. As to the method: (§1) The inhibiting activities of the inventive compounds obtained in Examples 1 to 237 against EGFR WT and EGFR L858R/T790M kinase were determined using z-lyte kinase assay kit (Invitrogen, PV3191). The kinases used in the test were purchased from Invitrogen.
(§2) The compounds obtained in Examples 1 to 237 were each prepared to 10 mM DMSO solution, and a solution containing 4% DMSO were prepared therefrom and diluted to a concentration of 1 μM to 0.0001 μM. […] The test was conducted in a 384 well polystyrene flat-bottomed plates. 5 μl of the diluted solution of each compound was added to each well, and 10 μl of a mixture of peptide substrate and kinase in a suitable concentration and 5 μl of 5˜300 μM ATP solution were successively added thereto and the plate was incubated in a stirrer at room temperature for 60 minutes. After 60 mins, 10 μl of coloring reagent was added to the resulting mixture to initiate a fluorescence reaction of peptide substrate and a terminating solution was added thereto for terminating the reaction. A fluorescence value of each well was determined with a fluorescence meter (Molecular Device) at 400 nm (excitation filter) and 520 nm (emission filter). […] The calculation of IC50 and the result analysis were carried out by using Microsoft Excel.
(§3) The inhibiting activities of the inventive compounds obtained in Examples 1 to 237 against BTK and JAK3 kinases were determined, respectively. The procedure of Test Example 2 was repeated except that BTK and JAK3 kinases (Invitrogen) were employed instead of using the EGFR kinase.

A further test concerns A431 (EGFR WT). Kind of test: Inhibition test for growth of cancer cell expressing EGFR (SRB), A431.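 Note: cells in 96-well plates exposed to tenfold serial dilutions from 100 µM down to 10^−6 µM, DMSO under 1%, SRB staining read as absorbance at 540 nm.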 The format is cell-based. To be noted: Homo sapiens, A-431; A431 cells, 72 hours, SRB; read-out: GI50 A431 EGFR WT.
Test [2] concerns NCI-H1975 (EGFR L858R/T790M). Kind of test: Inhibition test for growth of cancer cell expressing EGFR (MTS), NCI-H1975. The format is cell-based. As to conditions: Homo sapiens; NCI-H1975 cells, 48 hours, MTS; read-out: GI50 NCI-H1975 EGFR L858R/T790M.
Method: A431 cell line was incubated in a high-glucose DMEM (Dulbecco's Modified Eagle's Medium) supplemented with 10% fetal bovine serum (FBS) and 1% penicillin/streptomycin (Gibco BRL), and HCC827 and NCI-H1975 cell lines were incubated in an RPMI medium supplemented with 10% FBS, 1% penicillin/streptomycin and 1% sodium pyruvate.
The cancer cell lines stored in a liquid nitrogen tank were each quickly thawed at 37° C., and centrifuged to remove the medium. The resulting cell pellet was mixed with a culture medium, incubated in a culture flask at 37° C. under 5% CO2 for 2 to 3 days, and the medium was removed. The remaining cells were washed with DPBS (Dulbecco's Phosphate Buffered Saline) and separated from the flask by using Tripsin-EDTA. […] 100 μl of the diluted cell solution was added to each well of a 96-well plate, and incubated at 37° C. under 5% CO2 for 1 day.
In case that the test compound was not soluble in DMSO, 1% HCl was added thereto and treated in a 40° C. water bath for 30 mins until a complete dissolution was attained. The DMSO solution containing test compound was diluted with a culture medium to a final concentration of 100 μM, and then diluted 10 times serially to 10^−6 μM (a final concentration of DMSO was less than 1%).
The medium was removed from each well of the 96-well plate. And then, 100 μl of a test compound solution was added to each well holding the cultured cells, and the plate was incubated at 37° C. under 5% CO2 for 72 hours (except that NCI-H1975 cells were incubated for 48 hours). After removing the medium from the plate, 50 μA of 10% trichloroacetic acid was added to each well, and the plate was kept at 4° C. for 1 hour to fix the cells to the bottom of the plate. The added 10% trichloroacetic acid solution was removed from each well, the plate was dried, 100 μA of an SRB (Sulforhodamine-B) dye solution at a concentration of 0.4% dissolved in 1% acetic acid was added thereto, and the resulting mixture was reacted for 10 mins at room temperature. After removing the dye solution, the plate was washed with water, and well dried. When the dye solution was not effectively removed by water, 1% acetic acid was used. 150 μA of 10 mM trisma base was added to each well, and the absorbance at 540 nm wavelength was determined with a microplate reader.
In a further test the target is T2, BTK (Homo sapiens, UniProt Q06187).
T2 construct: purchased Invitrogen
The test can be described thus: z-lyte kinase assay, BTK. It is filed as biochemical. The method, then:
as §1, §2, §3

The structures appear in SMILES notation.

T2 sequence (Q06187 whole entry): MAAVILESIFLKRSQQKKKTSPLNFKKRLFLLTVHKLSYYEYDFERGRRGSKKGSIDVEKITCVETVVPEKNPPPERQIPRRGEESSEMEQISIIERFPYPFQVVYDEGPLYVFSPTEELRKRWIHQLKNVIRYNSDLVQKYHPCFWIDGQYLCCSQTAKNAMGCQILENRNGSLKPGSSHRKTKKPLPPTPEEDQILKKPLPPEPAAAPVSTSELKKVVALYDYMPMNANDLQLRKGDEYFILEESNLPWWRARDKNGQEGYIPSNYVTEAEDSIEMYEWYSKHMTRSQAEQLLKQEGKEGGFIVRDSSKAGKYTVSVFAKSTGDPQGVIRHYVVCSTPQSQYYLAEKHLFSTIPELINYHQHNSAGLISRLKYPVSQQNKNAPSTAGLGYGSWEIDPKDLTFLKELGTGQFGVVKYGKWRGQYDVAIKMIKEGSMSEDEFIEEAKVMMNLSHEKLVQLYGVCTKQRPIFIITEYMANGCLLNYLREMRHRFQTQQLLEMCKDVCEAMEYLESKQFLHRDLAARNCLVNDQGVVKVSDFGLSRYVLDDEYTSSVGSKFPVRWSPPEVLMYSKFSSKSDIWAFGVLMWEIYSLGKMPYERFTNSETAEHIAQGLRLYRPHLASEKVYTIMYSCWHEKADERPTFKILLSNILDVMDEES

A word on the IC50: it is the point on the concentration scale where inhibition reaches its midpoint. Lower therefore signals greater potency. As for `C=CC(=O)Nc1ccc(F)c(Nc2nc(Nc3ccc(N4CCN(C)CC4)c(F)c3)nc3ccsc23)c1` [Example 219, N-(4-fluoro-3-(2-(3-fluoro-4-(4-methyl-piperazin-1-yl)-phenylamino)-thieno[3,2-d]pyrimidin-4-ylamino)-phenyl)-acrylamide], the GI50 in test [1] was below 50 nM; in the test on A431 (EGFR WT) it was above 1000 nM; in test [2], below 50 nM. The concentration for half-maximal inhibition (IC50) on JAK3 and against BTK was at most 50 nM each time.

As to `C=CC(=O)Nc1cccc(Oc2nc(Nc3ccc(N4CCN(C(C)C)CC4)cc3)nc3ccsc23)c1` [Example 11], the GI50 in test [1] was below 50 nM; with A431 (EGFR WT), 100 to 1000 nM; in test [2], below 50 nM. In addition, the IC50 at JAK3 and against BTK was at most 50 nM throughout.

In the case of `C=CC(=O)Nc1cccc(Oc2nc(Nc3ccc(N4CCOCC4)cc3)nc3ccsc23)c1` [Example 29], the GI50 is 50 to 100 nM in test [1], above 1000 nM in the test on A431 (EGFR WT) and below 50 nM in test [2]. For the same molecule, the half-inhibitory concentration (IC50) against JAK3 and on BTK was at most 50 nM in each case.

As for `C=CC(=O)Nc1cccc(Oc2nc(Nc3ccc(N4CCN(C(C)C)CC4)cc3)nc3ccoc23)c1` [Example 229], the GI50 in test [1] is below 50 nM; in the test with A431 (EGFR WT), 100 to 1000 nM; in test [2], below 50 nM. Moreover, the IC50 against JAK3 and against BTK was at most 50 nM throughout.

On to `C=CC(=O)Nc1cccc(Oc2nc(Nc3ccc(CCN4CCN(CC)CC4)cc3)nc3ccsc23)c1` [Example 99], for which the GI50 in test [1] is 50 to 100 nM; in the test on A431 (EGFR WT) it was above 1000 nM; in test [2] it was below 50 nM. Besides, the IC50 against JAK3 was 50 to 100 nM; against BTK it was at most 50 nM.

For `C=CC(=O)Nc1cccc(Oc2nc(Nc3ccc(OC4CCN(CC)CC4)cc3)nc3ccsc23)c1` [Example 66], the figures for the GI50 (in test [1]; in the test on A431 (EGFR WT); in test [2]) were below 50 nM, above 1000 nM and below 50 nM, respectively. Besides, the 50% inhibitory concentration (IC50) is 50 to 100 nM on JAK3 and at most 50 nM at BTK.

On to `C=CC(=O)Nc1cccc(Oc2nc(Nc3ccc(C(=O)NC4CCN(C)CC4)c(Cl)c3)nc3ccsc23)c1` [Example 142], for which the figures for the GI50 (in test [1]; in the test with A431 (EGFR WT); in test [2]) were below 50 nM, above 1000 nM and below 50 nM, respectively. For the same molecule, the concentration for half-maximal inhibition (IC50) on JAK3 and on BTK was at most 50 nM in each case.

As to `C=CC(=O)Nc1cccc(Oc2nc(Nc3ccc(N4CCC(N5CCCCC5)CC4)c(F)c3)nc3ccsc23)c1` [Example 125], the GI50 in test [1] was below 50 nM; in the test with A431 (EGFR WT) it was above 1000 nM; in test [2], below 50 nM. The half-inhibitory concentration (IC50) on JAK3 and against BTK was at most 50 nM in each case.

Consider `C=CC(=O)Nc1cccc(Oc2nc(Nc3ccc(CN4CCN(C)CC4)cc3)nc3ccsc23)c1` [Example 182], for which the values for the GI50 (in test [1]; with A431 (EGFR WT); in test [2]) were below 50 nM, above 1000 nM and below 50 nM, respectively. The IC50 was 50 to 100 nM on JAK3 and at most 50 nM at BTK.

As to `C=CC(=O)Nc1cccc(Oc2nc(Nc3ccc(OCCN(C)C)cc3)nc3ccsc23)c1` [Example 62], the GI50 in test [1] is below 50 nM; in the test with A431 (EGFR WT) it was above 1000 nM; in test [2] it was below 50 nM. The concentration for half-maximal inhibition (IC50) at JAK3 and against BTK was at most 50 nM in each case.

Regarding `C=CC(=O)Nc1cccc(Oc2nc(Nc3ccc(C4=CCN(C)CC4)cc3)nc3ccsc23)c1` [Example 51], the GI50 was below 50 nM in test [1], above 1000 nM in the test with A431 (EGFR WT) and below 50 nM in test [2]. The results for the IC50 against JAK3 and on BTK were 50 to 100 nM and at most 50 nM, respectively.

`C=CC(=O)Nc1cccc(Oc2nc(Nc3ccc(NC4CCN(C)CC4)c(F)c3)nc3ccoc23)c1` [Example 237]: the GI50 is below 50 nM in test [1], above 1000 nM with A431 (EGFR WT) and below 50 nM in test [2]. In addition, the IC50 at JAK3 and at BTK was at most 50 nM each time.

As to `C=CC(=O)Nc1cccc(Oc2nc(Nc3ccc(NC4CCN(C)CC4)c(F)c3)nc3ccsc23)c1` [Example 129], the GI50 in test [1] was below 50 nM; in the test on A431 (EGFR WT) it was above 1000 nM; in test [2] it was below 50 nM. The concentration for half-maximal inhibition (IC50) against JAK3 and at BTK was at most 50 nM each time.

With `C=CC(=O)Nc1cccc(Oc2nc(Nc3ccc(C4CCN(CC)CC4)cc3)nc3ccsc23)c1` [Example 53], the GI50 in test [1] was below 50 nM; in the test with A431 (EGFR WT) it was above 1000 nM; in test [2] it was below 50 nM. Also, the IC50 on JAK3 and at BTK was at most 50 nM each time.

As for `C=CC(=O)Nc1cccc(Oc2nc(Nc3ccc(C(=O)NC4CCN(C(C)C)CC4)cc3)nc3ccsc23)c1` [Example 83], the GI50 in test [1] is below 50 nM; in the test on A431 (EGFR WT) it was 100 to 1000 nM; in test [2] it was below 50 nM. Moreover, the concentration for half-maximal inhibition (IC50) at JAK3 and at BTK was at most 50 nM in each case.

As for `C=CC(=O)Nc1cccc(Oc2nc(Nc3ccc(CN(CC)CC)cc3)nc3ccsc23)c1` [Example 174], the GI50 in test [1] and in test [2] was below 50 nM in each case. For the same molecule, the results for the IC50 against JAK3 and at BTK were 50 to 100 nM and at most 50 nM, respectively.

As to `C=CC(=O)Nc1cccc(Oc2nc(Nc3ccc(N4CCN(C)CC4)c(Cl)c3)nc3ccsc23)c1` [Example 7], the GI50 in test [1] and in test [2] was below 50 nM each time. Further, the IC50 against JAK3 is 50 to 100 nM; against BTK it was at most 50 nM.

For `C=CC(=O)Nc1cccc(Oc2nc(Nc3ccc(NC4CCN(C(C)C)CC4)c(F)c3)nc3ccsc23)c1` [Example 130], the GI50 in test [1] and in test [2] was below 50 nM throughout. Further, the IC50 against JAK3 was at most 50 nM; against BTK, 50 to 100 nM.

In the case of `C=CC(=O)Nc1cccc(Oc2nc(Nc3ccc(NC4CCN(C)CC4)cc3)nc3ccsc23)c1` [Example 59], the GI50 in test [1] is below 50 nM; in test [2], 100 to 1000 nM. Besides, the IC50 on JAK3 is 50 to 100 nM; against BTK, at most 50 nM.

As for `C=CC(=O)Nc1cccc(Oc2nc(Nc3ccc(N4CCC(CN(C)C)CC4)cc3)nc3ccsc23)c1` [Example 41], the GI50 in test [1] and in test [2] was below 50 nM throughout. Also, the IC50 on JAK3 and against BTK was 50 to 100 nM throughout.

`C=CC(=O)Nc1cccc(Oc2nc(Nc3ccc(CN4CCC(N(C)C)CC4)cc3)nc3ccoc23)c1` [Example 232]: the GI50 in test [1] and in test [2] was 50 to 100 nM each time. For the same molecule, the half-maximal inhibitory concentration (IC50) on JAK3 and on BTK was at most 50 nM in each case.

`C=CC(=O)Nc1cccc(Oc2nc(Nc3ccc(N4CCN(C5CCN(C)CC5)CC4)nc3)nc3ccsc23)c1` [Example 148]: the GI50 in test [1] and in test [2] was below 50 nM each time. Besides, the results for the concentration for half-maximal inhibition (IC50) at JAK3 and at BTK were 50 to 100 nM and at most 50 nM, respectively.

Regarding `C=CC(=O)Nc1cccc(Oc2nc(Nc3ccc(NCCN(C)C)cc3)nc3ccsc23)c1` [Example 57], the GI50 in test [1] was below 50 nM; in test [2], 100 to 1000 nM. In addition, the 50% inhibitory concentration (IC50) was 50 to 100 nM against JAK3 and at most 50 nM on BTK.

The values above are taken from USRE46511E1, “Fused pyrimidine derivatives for inhibition of tyrosine kinase activity” (HANMI SCIENCE CO., LTD., priority 2010, dated 2017).
